According to ChEMBL document CHEMBL3297733, “Discovery and optimization of pyrrolo[1,2-a]pyrazinones leads to novel and selective inhibitors of PIM kinases” (Bioorg Med Chem, 2013):

Tests used:
MV4-11 = assay: Cytotoxicity against human MV4-11 cells after 72 hrs by CellTitre-Glo assay; type: functional, cell-based; conditions: MV4-11, 72 h
[1] = Plasma protein binding in mouse; type: ADME; conditions: read-out: PPB (converted)
[2] = target: Eukaryotic translation initiation factor 2-alpha kinase 3 (Homo sapiens, UniProt Q9NZJ5); assay: Inhibition of PERK (unknown origin)
Eukaryotic translation initiation factor 2-alpha kinase 3, sequence (Q9NZJ5 whole entry): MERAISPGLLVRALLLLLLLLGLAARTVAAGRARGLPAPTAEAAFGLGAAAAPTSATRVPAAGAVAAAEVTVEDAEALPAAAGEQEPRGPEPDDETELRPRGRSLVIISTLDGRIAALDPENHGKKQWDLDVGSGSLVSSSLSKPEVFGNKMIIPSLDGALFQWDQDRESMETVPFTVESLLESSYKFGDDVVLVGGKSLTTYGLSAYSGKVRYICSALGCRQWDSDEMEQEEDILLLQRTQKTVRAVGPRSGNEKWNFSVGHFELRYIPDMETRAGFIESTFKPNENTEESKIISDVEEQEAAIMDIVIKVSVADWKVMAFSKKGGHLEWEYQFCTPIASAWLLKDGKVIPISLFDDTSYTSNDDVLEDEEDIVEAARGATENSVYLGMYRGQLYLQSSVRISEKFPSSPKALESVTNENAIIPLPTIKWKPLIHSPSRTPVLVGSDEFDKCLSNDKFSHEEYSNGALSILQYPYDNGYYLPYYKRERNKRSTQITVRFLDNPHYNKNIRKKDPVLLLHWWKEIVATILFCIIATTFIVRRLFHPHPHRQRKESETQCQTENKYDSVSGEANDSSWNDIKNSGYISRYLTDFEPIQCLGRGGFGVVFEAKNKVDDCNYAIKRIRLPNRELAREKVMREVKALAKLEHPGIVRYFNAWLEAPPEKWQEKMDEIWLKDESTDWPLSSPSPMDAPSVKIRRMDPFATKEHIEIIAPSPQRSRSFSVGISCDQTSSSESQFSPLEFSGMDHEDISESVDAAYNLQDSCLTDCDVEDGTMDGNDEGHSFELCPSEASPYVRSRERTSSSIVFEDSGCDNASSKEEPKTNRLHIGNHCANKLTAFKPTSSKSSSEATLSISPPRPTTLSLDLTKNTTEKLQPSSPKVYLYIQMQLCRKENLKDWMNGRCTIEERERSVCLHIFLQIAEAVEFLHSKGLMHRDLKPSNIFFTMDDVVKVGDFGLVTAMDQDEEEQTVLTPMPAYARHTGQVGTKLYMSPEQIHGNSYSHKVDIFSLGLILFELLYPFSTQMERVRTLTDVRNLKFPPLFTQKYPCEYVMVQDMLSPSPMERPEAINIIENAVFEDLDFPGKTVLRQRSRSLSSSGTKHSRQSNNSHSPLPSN

[3] = target: Tyrosine-protein kinase JAK1 (Homo sapiens, UniProt P23458); assay: Inhibition of JAK1 (unknown origin)
[4] = Intrinsic clearance in dog hepatocytes; type: ADME, cell-based, Canis lupus familiaris, Hepatocyte; conditions: read-out: CLH
[5] = target: Tyrosine-protein kinase ABL1 (Homo sapiens, UniProt P00519); assay: Inhibition of Bcr-ABL (unknown origin)
Aurora kinase A = Aurora kinase A (Homo sapiens, UniProt O14965); assay: Inhibition of aurora kinase 1 (unknown origin)
Aurora kinase A, sequence (O14965 whole entry): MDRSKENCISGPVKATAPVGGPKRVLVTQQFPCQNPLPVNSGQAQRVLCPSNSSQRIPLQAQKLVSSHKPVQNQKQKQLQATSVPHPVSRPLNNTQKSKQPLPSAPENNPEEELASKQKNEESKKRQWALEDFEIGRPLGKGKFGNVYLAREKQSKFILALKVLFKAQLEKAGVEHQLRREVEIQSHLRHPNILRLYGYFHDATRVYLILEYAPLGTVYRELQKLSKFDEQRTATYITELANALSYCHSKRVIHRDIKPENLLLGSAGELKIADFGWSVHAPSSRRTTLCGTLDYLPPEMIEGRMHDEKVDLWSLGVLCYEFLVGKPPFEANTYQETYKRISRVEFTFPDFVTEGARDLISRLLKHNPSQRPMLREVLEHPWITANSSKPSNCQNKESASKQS

[6] = target: Fibroblast growth factor receptor 1 (Homo sapiens, UniProt P11362); assay: Inhibition of FGFR1 (unknown origin)
[7] = Cytotoxicity against mouse BA/F3 cells after 72 hrs by CellTitre-Glo assay; type: cell-based; conditions: BaF3, 72 h
[8] = Intrinsic clearance in mouse hepatocytes; type: ADME, cell-based, Hepatocyte; conditions: read-out: CLH
[9] = Apparent permeability from apical to basolateral side in human Caco2 cells after 120 mins by LC-MS/MS analysis; conditions: Caco-2
[10] = target: Serine/threonine-protein kinase Nek6 (Homo sapiens, UniProt Q9HC98); assay: Inhibition of NEK6 (unknown origin)
Serine/threonine-protein kinase Nek6, sequence (Q9HC98 whole entry): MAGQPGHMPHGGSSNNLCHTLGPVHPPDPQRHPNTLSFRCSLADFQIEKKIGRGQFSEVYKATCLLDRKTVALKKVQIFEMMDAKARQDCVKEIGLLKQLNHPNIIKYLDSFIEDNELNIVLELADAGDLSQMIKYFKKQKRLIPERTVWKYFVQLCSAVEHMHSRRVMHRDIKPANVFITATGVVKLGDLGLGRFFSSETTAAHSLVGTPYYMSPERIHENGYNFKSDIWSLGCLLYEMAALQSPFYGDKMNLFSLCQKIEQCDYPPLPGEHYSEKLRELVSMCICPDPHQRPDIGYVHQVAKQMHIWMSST

Activated CDC42 kinase 1 = Activated CDC42 kinase 1 (Homo sapiens, UniProt Q07912); assay: Inhibition of ACK1 (unknown origin)
Cytochrome P450 3A4 = Cytochrome P450 3A4 (Homo sapiens, UniProt P08684); assay: Inhibition of CYP3A4 (unknown origin); type: ADME
[11] = target: Platelet-derived growth factor receptor (Homo sapiens, UniProt P09619+P16234); assay: Inhibition of PDGFR (unknown origin); type: protein-complex assay
[12] = target: Tyrosine-protein kinase Lck (Homo sapiens, UniProt P06239); assay: Inhibition of LCK (unknown origin)
[13] = target: Serine/threonine-protein kinase PAK 4 (Homo sapiens, UniProt O96013); assay: Inhibition of PAK4 (unknown origin)
[14] = Intrinsic clearance in rat hepatocytes; type: ADME, cell-based, Hepatocyte; conditions: read-out: CLH
[15] = AUC in BALB/c mouse at 8.2 mg/kg, iv; type: ADME, organism-based; parameters: dose 8.2 mg/kg, route intravenous; conditions: plasma
[16] = target: Mitogen-activated protein kinase 1 (Homo sapiens, UniProt P28482); assay: Inhibition of ERK2 (unknown origin)
[17] = target: Serine/threonine-protein kinase pim-1 (Homo sapiens, UniProt P11309); assay: Inhibition of human PIM1 using ARK-RERTYSFGHHA as substrate incubated for 60 mins prior to substrate addition by topcount scintillation counting analysis in presence of [P33gamma]-ATP
Serine/threonine-protein kinase pim-1, sequence (P11309 whole entry): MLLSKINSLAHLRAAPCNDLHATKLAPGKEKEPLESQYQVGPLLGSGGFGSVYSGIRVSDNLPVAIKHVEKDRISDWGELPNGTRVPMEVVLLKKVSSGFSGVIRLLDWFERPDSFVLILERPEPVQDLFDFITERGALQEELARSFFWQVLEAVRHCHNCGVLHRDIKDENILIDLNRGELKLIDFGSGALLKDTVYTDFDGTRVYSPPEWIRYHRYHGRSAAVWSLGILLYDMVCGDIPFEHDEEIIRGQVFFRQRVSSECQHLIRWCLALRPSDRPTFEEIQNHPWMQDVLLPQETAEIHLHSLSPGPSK

[18] = target: Serine/threonine-protein kinase haspin (Homo sapiens, UniProt Q8TF76); assay: Inhibition of haspin (unknown origin)
[19] = Inhibition of CDK2/CYCA (unknown origin); parameters: species or system Homo sapiens
[20] = target: Mitogen-activated protein kinase 14 (Homo sapiens, UniProt Q16539); assay: Inhibition of P38alpha (unknown origin)
Mitogen-activated protein kinase 14, sequence (Q16539 whole entry): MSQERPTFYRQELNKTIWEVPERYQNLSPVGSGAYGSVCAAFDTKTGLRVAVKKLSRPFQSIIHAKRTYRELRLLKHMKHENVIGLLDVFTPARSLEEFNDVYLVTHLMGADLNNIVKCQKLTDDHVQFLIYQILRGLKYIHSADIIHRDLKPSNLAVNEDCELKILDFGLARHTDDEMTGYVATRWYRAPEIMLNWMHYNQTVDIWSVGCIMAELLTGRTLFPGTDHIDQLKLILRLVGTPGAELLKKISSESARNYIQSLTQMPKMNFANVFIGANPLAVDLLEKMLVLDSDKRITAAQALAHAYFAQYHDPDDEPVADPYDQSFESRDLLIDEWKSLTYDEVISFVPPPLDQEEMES

[21] = target: ALK tyrosine kinase receptor (Homo sapiens, UniProt Q9UM73); assay: Inhibition of ALK (unknown origin)
[22] = Plasma protein binding in human; type: ADME, cell-free; conditions: read-out: PPB (converted)
[23] = target: Proto-oncogene tyrosine-protein kinase receptor Ret (Homo sapiens, UniProt P07949); assay: Inhibition of RET (unknown origin)
[24] = target: RAC-alpha serine/threonine-protein kinase (Homo sapiens, UniProt P31749); assay: Inhibition of AKT1 (unknown origin)
[25] = target: Epidermal growth factor receptor (Homo sapiens, UniProt P00533); assay: Inhibition of EGFR1 (unknown origin)
[26] = target: Serine/threonine-protein kinase PLK1 (Homo sapiens, UniProt P53350); assay: Inhibition of PLK1 (unknown origin)
Serine/threonine-protein kinase PLK1, sequence (P53350 whole entry): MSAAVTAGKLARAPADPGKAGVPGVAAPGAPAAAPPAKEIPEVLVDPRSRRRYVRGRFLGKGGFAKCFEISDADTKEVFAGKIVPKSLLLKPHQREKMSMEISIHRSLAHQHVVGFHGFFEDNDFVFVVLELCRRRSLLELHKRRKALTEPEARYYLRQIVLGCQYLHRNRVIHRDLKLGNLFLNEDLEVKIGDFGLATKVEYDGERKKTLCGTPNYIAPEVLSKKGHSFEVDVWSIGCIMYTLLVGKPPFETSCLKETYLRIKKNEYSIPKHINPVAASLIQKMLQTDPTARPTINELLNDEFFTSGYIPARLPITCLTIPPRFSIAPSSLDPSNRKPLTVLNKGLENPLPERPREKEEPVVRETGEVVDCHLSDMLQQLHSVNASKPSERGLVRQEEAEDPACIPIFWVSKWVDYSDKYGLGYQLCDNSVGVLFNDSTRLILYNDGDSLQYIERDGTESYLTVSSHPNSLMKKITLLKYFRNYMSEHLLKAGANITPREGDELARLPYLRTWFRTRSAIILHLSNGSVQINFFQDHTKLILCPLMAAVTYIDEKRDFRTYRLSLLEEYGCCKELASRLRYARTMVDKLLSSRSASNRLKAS

[27] = target: Vascular endothelial growth factor receptor 3 (Homo sapiens, UniProt P35916); assay: Inhibition of VGFR3 (unknown origin)
[28] = Plasma protein binding in rat; type: ADME, cell-free; conditions: read-out: PPB (converted)
Casein kinase II = Casein kinase II (Homo sapiens, UniProt P19784+P67870+P68400); assay: Inhibition of CK2 (unknown origin); type: protein-complex assay
Insulin receptor = Insulin receptor (Homo sapiens, UniProt P06213); assay: Inhibition of IR (unknown origin)
Insulin receptor, sequence (P06213 28-758 limits assumed): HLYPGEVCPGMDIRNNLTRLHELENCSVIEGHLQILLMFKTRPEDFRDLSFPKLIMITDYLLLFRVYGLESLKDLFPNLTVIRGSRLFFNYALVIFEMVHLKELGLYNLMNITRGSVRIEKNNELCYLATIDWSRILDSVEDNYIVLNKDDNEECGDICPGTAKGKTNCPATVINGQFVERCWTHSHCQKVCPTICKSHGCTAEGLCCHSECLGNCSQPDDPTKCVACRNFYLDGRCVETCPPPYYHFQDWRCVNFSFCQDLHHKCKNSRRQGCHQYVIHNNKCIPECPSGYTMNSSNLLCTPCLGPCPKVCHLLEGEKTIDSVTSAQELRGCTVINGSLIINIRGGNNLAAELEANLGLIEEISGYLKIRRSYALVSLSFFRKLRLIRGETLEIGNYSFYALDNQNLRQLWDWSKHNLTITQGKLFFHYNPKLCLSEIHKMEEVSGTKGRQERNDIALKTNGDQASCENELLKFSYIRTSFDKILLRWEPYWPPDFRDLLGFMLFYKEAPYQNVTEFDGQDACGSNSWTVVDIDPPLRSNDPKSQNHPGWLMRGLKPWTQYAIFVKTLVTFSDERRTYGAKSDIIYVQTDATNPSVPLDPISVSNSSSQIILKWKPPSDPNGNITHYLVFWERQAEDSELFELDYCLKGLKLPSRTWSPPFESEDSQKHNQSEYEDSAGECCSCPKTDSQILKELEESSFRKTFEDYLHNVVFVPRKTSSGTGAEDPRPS
Insulin receptor, sequence (P06213 763-1382 limits assumed): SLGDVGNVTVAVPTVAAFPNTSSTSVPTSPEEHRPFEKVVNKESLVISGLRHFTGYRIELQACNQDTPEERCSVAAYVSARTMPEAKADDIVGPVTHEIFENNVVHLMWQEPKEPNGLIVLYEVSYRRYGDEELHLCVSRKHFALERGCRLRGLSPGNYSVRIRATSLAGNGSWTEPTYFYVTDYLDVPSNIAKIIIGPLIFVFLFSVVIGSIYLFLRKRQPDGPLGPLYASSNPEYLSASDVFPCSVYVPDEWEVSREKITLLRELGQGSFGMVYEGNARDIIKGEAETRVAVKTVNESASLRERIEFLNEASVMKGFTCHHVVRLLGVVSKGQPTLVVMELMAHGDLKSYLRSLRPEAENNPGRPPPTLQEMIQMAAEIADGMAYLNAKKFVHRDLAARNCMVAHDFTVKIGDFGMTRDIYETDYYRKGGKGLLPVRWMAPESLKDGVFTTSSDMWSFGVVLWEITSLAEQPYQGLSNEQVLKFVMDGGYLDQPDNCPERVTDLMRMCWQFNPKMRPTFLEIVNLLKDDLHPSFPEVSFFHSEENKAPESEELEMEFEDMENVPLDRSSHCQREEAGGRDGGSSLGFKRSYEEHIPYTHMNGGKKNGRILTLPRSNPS

[29] = Inhibition of SULU1 (unknown origin); parameters: species or system Homo sapiens
Cytochrome P450 2D6 = Cytochrome P450 2D6 (Homo sapiens, UniProt P10635); assay: Inhibition of CYP2D6 (unknown origin); type: ADME
Cytochrome P450 2D6, sequence (P10635 whole entry): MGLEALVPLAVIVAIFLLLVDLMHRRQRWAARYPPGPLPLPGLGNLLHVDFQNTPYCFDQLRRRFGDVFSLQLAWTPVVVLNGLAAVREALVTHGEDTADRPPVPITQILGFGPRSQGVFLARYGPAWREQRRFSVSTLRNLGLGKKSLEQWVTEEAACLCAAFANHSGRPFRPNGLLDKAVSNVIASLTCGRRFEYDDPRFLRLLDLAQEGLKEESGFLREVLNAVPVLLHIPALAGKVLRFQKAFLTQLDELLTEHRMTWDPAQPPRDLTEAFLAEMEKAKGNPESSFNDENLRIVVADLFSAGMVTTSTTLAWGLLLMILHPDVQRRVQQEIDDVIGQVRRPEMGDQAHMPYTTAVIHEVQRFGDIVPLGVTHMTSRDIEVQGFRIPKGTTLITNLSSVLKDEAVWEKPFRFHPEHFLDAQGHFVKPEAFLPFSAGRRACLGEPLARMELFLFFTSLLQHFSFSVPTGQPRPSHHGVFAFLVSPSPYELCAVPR

CN1CCN(C[C@@H](NC(=O)C[C@H]2CNC(=O)c3cc(-c4cccc(Cl)c4)cn32)C2CCCCC2)CC1
21 mL/min/kg: CLint scaled [14]
0.02: fraction unbound [1]
8.75 µM·h: AUC [15]
0.03 µM: IC50 [17]
0.036: fraction unbound [28]
11 mL/min/kg: CLint scaled [4]
0.03: fraction unbound [22]
8.4 ×10⁻⁶ cm/s: Papp A→B at 2 h [9]
1.53 µM: IC50 (MV4-11)
63 mL/min/kg: CLint scaled [8]
> 10 µM: IC50 [2] | IC50 [3] | IC50 [5] | IC50 (Aurora kinase A) | IC50 [6] | IC50 [7] | IC50 [10] | IC50 (Activated CDC42 kinase 1) | IC50 (Cytochrome P450 3A4) | IC50 [11] | IC50 [12] | IC50 [13] | IC50 [16] | IC50 [18] | IC50 [19] | IC50 [20] | IC50 [21] | IC50 [23] | IC50 [24] | IC50 [25] | IC50 [26] | IC50 [27] | IC50 (Casein kinase II) | IC50 (Insulin receptor) | IC50 [29] | IC50 (Cytochrome P450 2D6)
